Measurements taken from US11206830B2, “Herbicidal composition comprising glufosinate or a salt thereof and pyroxasulfone” (BASF SE, priority 2008, dated 2021).

Key:
Type in all cases: in vivo
[1] = system: Alopecurus myosuroides (ALOMY); test: greenhouse post-emergence herbicidal activity on ALOMY; settings: solo application
Source text: (§1) For the post-emergence treatment, the test plants were first grown to a height of 3 to 20 cm, depending on the plant habit, and only then treated. Here, the herbicidal compositions were suspended or emulsified in water as distribution medium and sprayed using finely distributing nozzles.
(§2) The respective herbicides B and/or safener were formulated as 10% by weight strength suspension concentrate and introduced to the spray liquor with the amount of solvent system used for applying the active compound. Herbicides A, C and/or safener were used as commercially available formulations and introduced to the spray liquor with the amount of solvent system used for applying the active compound. In the examples, the solvent used was water.
(§3) The test period extended over 21 days. During this time, the plants were tended, and their response to the treatments with active compound was evaluated.
(§4) The evaluation for the damage caused by the chemical compositions was carried out using a scale from 0 to 100%, compared to the untreated control plants. Here, 0 means no damage and 100 means complete destruction of the plants.
(§5) The value E, which is to be expected if the activity of the individual compounds is just additive, was calculated using the method of S. R. Colby (1967) “Calculating synergistic and antagonistic responses of herbicide combinations”, Weeds 15, p. 22 ff. For two component mixtures the value E was calculated by the following formula E=X+Y−(X·Y/100)
(§6) For three component mixtures the value E was calculated by the following formula E=X+Y+Z−(XY+XZ+YZ)/100+(X·YZ/10000) where X=effect in percent using herbicide A at an application rate a; • Y=effect in percent using herbicide B at an application rate b; • Z=effect in percent using herbicide C at an application rate c; • E=expected effect (in %) of A+B at application rates a+b. or • E=expected effect (in %) of A+B+C at application rates a+b+c.
(§7) If the value observed in this manner is higher than the value E calculated according to Colby, a synergistic effect is present.
(§8) Tables 1 to 12 relate to the herbicidal activity of the individual actives and of their combinations in post-emergence application assessed 20 DAT.

[2] = system: Digitaria sanguinalis (DIGSA); test: greenhouse post-emergence herbicidal activity on DIGSA; settings: solo application
Source text: as §1, §2, §3, §4, §5, §6, §7, §8

[3] = system: Chenopodium album (CHEAL); test: greenhouse post-emergence herbicidal activity on CHEAL; settings: solo application; for inhibition at 6.25 g/ha: 6.25 g ai/ha
Source text: as §1, §2, §3, §4, §5, §6, §7, §8

Galium aparine (GALAP) = test: greenhouse post-emergence herbicidal activity on GALAP; settings: solo application; for inhibition at 5 g/ha: 5 g ai/ha
Source text: as §1, §2, §3, §4, §5, §6, §7, §8

Avena fatua (AVEFA) = test: greenhouse post-emergence herbicidal activity on AVEFA; settings: 480 h, solo application, 6.25 g ai/ha, read-out: % activity 20 DAT
Source text: as §1, §2, §3, §4, §5, §6, §7, §8

[4] = system: Matricaria inermis (MATIN); test: greenhouse post-emergence herbicidal activity on MATIN; settings: solo application
Source text: as §1, §2, §3, §4, §5, §6, §7, §8

[5] = system: Abutilon theophrasti (ABUTH); test: greenhouse post-emergence herbicidal activity on ABUTH; settings: solo application; for inhibition at 5 g/ha: 5 g ai/ha
Source text: as §1, §2, §3, §4, §5, §6, §7, §8

[6] = system: Lolium multiflorum (LOLMU); test: greenhouse post-emergence herbicidal activity on LOLMU; settings: solo application; for inhibition at 5 g/ha: 5 g ai/ha
Source text: as §1, §2, §3, §4, §5, §6, §7, §8

[7] = system: Polygonum convolvulus (POLCO); test: greenhouse post-emergence herbicidal activity on POLCO; settings: solo application
Source text: as §1, §2, §3, §4, §5, §6, §7, §8

[8] = system: Amaranthus retroflexus (AMARE); test: greenhouse post-emergence herbicidal activity on AMARE; settings: 480 h, solo application, 100 g ai/ha, read-out: % activity 20 DAT
Source text: as §1, §2, §3
(§9) The evaluation for the damage caused by the chemical compositions was carried out using a scale from 0 to 100%, compared to the untreated control plants. […]
(§10) The value E, which is to be expected if the activity of the individual compounds is just additive, was calculated using the method of S. R. Colby (1967) “Calculating synergistic and antagonistic responses of herbicide combinations”, Weeds 15, p. […] For two component mixtures the value E was calculated by the following formula E=X+Y−(X·Y/100)
as §6, §7, §8

Setaria viridis (SETVI) = test: greenhouse post-emergence herbicidal activity on SETVI; settings: 480 h, solo application, 100 g ai/ha, read-out: % activity 20 DAT
Source text: as §1, §2, §3, §9, §10, §6, §7, §8

[9] = Alopecurus myosuroides, 480 h, 6.25 g ai/ha, read-out: % activity 20 DAT
[10] = Digitaria sanguinalis, 480 h, 6.25 g ai/ha, read-out: % activity 20 DAT
[11] = Chenopodium album, 480 h, read-out: % activity 20 DAT
[12] = Galium aparine, 480 h, read-out: % activity 20 DAT
[13] = Abutilon theophrasti, 480 h, read-out: % activity 20 DAT
[14] = Lolium multiflorum, 480 h, read-out: % activity 20 DAT

Q: How did the inhibition at 6.25 g/ha [1, 9] turn out when `C#CCN1C(=O)COc2cc(F)c(N3C(=O)C4=C(CCCC4)C3=O)cc21` [flumioxazin] was run?
A: 20%

Q: And the inhibition at 12.5 g/ha ([1]; Alopecurus myosuroides, 480 h, 12.5 g ai/ha, read-out: % activity 20 DAT)?
A: 20%

Q: And the inhibition at 6.25 g/ha [2, 10]?
A: 15%

Q: And the inhibition at 6.25 g/ha [3, 11]?
A: 0%

Q: What about the inhibition at 12.5 g/ha ([3]; Chenopodium album, 480 h, 12.5 g ai/ha, read-out: % activity 20 DAT) of the same molecule?
A: 30%

Q: What about the inhibition at 6.25 g/ha (Galium aparine (GALAP); Galium aparine, 480 h, 6.25 g ai/ha, read-out: % activity 20 DAT) of the same molecule?
A: 30%

Q: And the inhibition at 12.5 g/ha (Galium aparine (GALAP); Galium aparine, 480 h, 12.5 g ai/ha, read-out: % activity 20 DAT)?
A: 30%

Q: What about the inhibition at 6.25 g/ha (Avena fatua (AVEFA)) of the same molecule?
A: 35%

Q: What about the inhibition at 6.25 g/ha ([4]; Matricaria, 480 h, 6.25 g ai/ha, read-out: % activity 20 DAT) of the same molecule?
A: 65%

Q: For `COCc1cnc(C2=NC(C)(C(C)C)C(=O)N2)c(C(=O)O)c1` (centres unmarked) [imazamox], which inhibition at 10 g/ha ([1]; Alopecurus myosuroides, 480 h, 10 g ai/ha, read-out: % activity 20 DAT) is on record?
A: 30%

Q: And the inhibition at 10 g/ha ([2]; Digitaria sanguinalis, 480 h, 10 g ai/ha, read-out: % activity 20 DAT)?
A: 20%

Q: What about the inhibition at 5 g/ha ([3]; Chenopodium album, 480 h, 5 g ai/ha, read-out: % activity 20 DAT) of the same molecule?
A: 15%

Q: And the inhibition at 10 g/ha ([3]; Chenopodium album, 480 h, 10 g ai/ha, read-out: % activity 20 DAT)?
A: 30%

Q: And the inhibition at 5 g/ha (Galium aparine (GALAP); [12])?
A: 20%

Q: What about the inhibition at 10 g/ha (Galium aparine (GALAP); Galium aparine, 480 h, 10 g ai/ha, read-out: % activity 20 DAT) of the same molecule?
A: 30%

Q: And the inhibition at 5 g/ha [5, 13]?
A: 50%

Q: And the inhibition at 5 g/ha ([4]; Matricaria, 480 h, 5 g ai/ha, read-out: % activity 20 DAT)?
A: 25%

Q: And the inhibition at 5 g/ha [6, 14]?
A: 40%

Q: And the inhibition at 10 g/ha ([6]; Lolium multiflorum, 480 h, 10 g ai/ha, read-out: % activity 20 DAT)?
A: 60%

Q: How did the inhibition at 20 g/ha ([1]; Alopecurus myosuroides, 480 h, 20 g ai/ha, read-out: % activity 20 DAT) turn out when `Cc1cnc(C2=NC(=O)C(C)(C(C)C)N2)c(C(=O)O)c1` (centres unmarked) [imazapic] was run?
A: 45%

Q: And the inhibition at 5 g/ha ([2]; Digitaria sanguinalis, 480 h, 5 g ai/ha, read-out: % activity 20 DAT)?
A: 50%

Q: And the inhibition at 20 g/ha ([3]; Chenopodium album, 480 h, 20 g ai/ha, read-out: % activity 20 DAT)?
A: 40%

Q: And the inhibition at 5 g/ha (Galium aparine (GALAP); [12])?
A: 55%

Q: What about the inhibition at 5 g/ha [5, 13] of the same molecule?
A: 60%

Q: And the inhibition at 5 g/ha [6, 14]?
A: 60%

Q: For `CS(=O)(=O)c1cc(C(F)(F)F)ccc1C(=O)c1cnoc1C1CC1` [isoxaflutole], which inhibition at 6.25 g/ha [1, 9] is on record?
A: 0%

Q: And the inhibition at 6.25 g/ha [2, 10]?
A: 15%

Q: What about the inhibition at 6.25 g/ha [3, 11] of the same molecule?
A: 75%

Q: And the inhibition at 6.25 g/ha ([5]; Abutilon theophrasti, 480 h, 6.25 g ai/ha, read-out: % activity 20 DAT)?
A: 55%

Q: What about the inhibition at 25 g/ha ([7]; Fallopia convolvulus, 480 h, 25 g ai/ha, read-out: % activity 20 DAT) of the same molecule?
A: 45%

Q: Which results are given for `CCC(CC)Nc1c([N+](=O)[O-])cc(C)c(C)c1[N+](=O)[O-]` [pendimethalin]?
A: inhibition at 400 g/ha ([1]; Alopecurus myosuroides, 480 h, 400 g ai/ha, read-out: % activity 20 DAT): 40%; inhibition at 100 g/ha ([4]; Matricaria, 480 h, 100 g ai/ha, read-out: % activity 20 DAT): 0%; inhibition at 800 g/ha ([4]; Matricaria, 480 h, 800 g ai/ha, read-out: % activity 20 DAT): 0%; inhibition at 100 g/ha [8]: 75%; inhibition at 200 g/ha ([6]; Lolium multiflorum, 480 h, 200 g ai/ha, read-out: % activity 20 DAT): 30%; inhibition at 100 g/ha (Setaria viridis (SETVI)): 30%

Q: What does the source list for `O=C(Nc1ccc(F)cc1)c1cccc(Oc2cccc(C(F)(F)F)c2)n1` [picolinafen]?
A: % activity 20 DAT ([1]; 6.25 g ai/ha): 0%; % activity 20 DAT ([1]; 25 g ai/ha): 0%; % activity 20 DAT ([2]; 6.25 g ai/ha): 30%; % activity 20 DAT ([2]; 12.5 g ai/ha): 45%; % activity 20 DAT ([3]; 12.5 g ai/ha): 30%; % activity 20 DAT (Galium aparine (GALAP); 6.25 g ai/ha): 30%; % activity 20 DAT ([5]; 6.25 g ai/ha): 30%; % activity 20 DAT ([5]; 25 g ai/ha): 60%; % activity 20 DAT ([4]; 50 g ai/ha): 60%; % activity 20 DAT ([6]; 12.5 g ai/ha): 10%; % activity 20 DAT ([7]; 50 g ai/ha): 80%
